Laboratory results from patent US20140120232A1, “ACID TASTE/ACID SMELL-REDUCING AGENT” (T. HASEGAWA CO., LTD., priority 2011, published 2014).

Experiment: Sensory evaluation of orange juice containing the agent
Details: ten panels
Method: Sensory evaluation of each drink was carried out by ten panels. […] The piercing aroma characteristic to aldehydes is a characteristic aroma common to every aldehyde and refers to an irritant off-smell giving an image of deteriorated oils and fats, soap, metals, Houttuynia cordata, etc. The judgment of smell was performed by comparing the effects at different concentrations of the acid taste and/or acid smell-reducing agent, and a concentration giving the highest acid taste/acid smell quality was selected.
To commercially available 100% orange juice was added (Z,Z)-4,7-tridecadienal as the acid taste and/or acid smell-reducing agent of the present invention in concentrations shown in the following Table 12 to give orange juice containing the agent, followed by sensory evaluation as in Example 1.

CCCCC/C=C\C/C=C\CCC=O [(Z,Z)-4,7-tridecadienal]
8: A: number of panels, acid taste/acid smell extreme and cause irritation (0.1 ppt)
3: N: number of panels, irritation of acid reduced to give a mild acid taste (10 ppb) | C: number of panels, acid taste/acid smell slightly unpleasant (20 ppt) | C: number of panels, acid taste/acid smell slightly unpleasant (500 ppt) | X: number of panels, acid taste reduced but piercing odor characteristic to aldehydes unpleasant (500 ppt)
1: B: number of panels, acid taste/acid smell slightly strong and slightly cause irritation (0.02 ppt) | B: number of panels, acid taste/acid smell slightly strong and slightly cause irritation (0.1 ppt) | C: number of panels, acid taste/acid smell slightly unpleasant (0.1 ppt) | Flavor judgment: number of panels who judged acid taste/acid smell quality the highest (0.5 ppt) | Flavor judgment: number of panels who judged acid taste/acid smell quality the highest (1 ppt) | B: number of panels, acid taste/acid smell slightly strong and slightly cause irritation (5 ppt) | C: number of panels, acid taste/acid smell slightly unpleasant (10 ppb) | C: number of panels, acid taste/acid smell slightly unpleasant (50 ppb)
0: B: number of panels, acid taste/acid smell slightly strong and slightly cause irritation (0.005 ppt) | C: number of panels, acid taste/acid smell slightly unpleasant (0.005 ppt) | Flavor judgment: number of panels who judged acid taste/acid smell quality the highest (0.005 ppt) | N: number of panels, irritation of acid reduced to give a mild acid taste (0.005 ppt) | X: number of panels, acid taste reduced but piercing odor characteristic to aldehydes unpleasant (0.005 ppt) | C: number of panels, acid taste/acid smell slightly unpleasant (0.02 ppt) | Flavor judgment: number of panels who judged acid taste/acid smell quality the highest (0.02 ppt) | N: number of panels, irritation of acid reduced to give a mild acid taste (0.02 ppt) | X: number of panels, acid taste reduced but piercing odor characteristic to aldehydes unpleasant (0.02 ppt) | Flavor judgment: number of panels who judged acid taste/acid smell quality the highest (0.1 ppt) | N: number of panels, irritation of acid reduced to give a mild acid taste (0.1 ppt) | X: number of panels, acid taste reduced but piercing odor characteristic to aldehydes unpleasant (0.1 ppt) | Flavor judgment: number of panels who judged acid taste/acid smell quality the highest (0.2 ppt) | N: number of panels, irritation of acid reduced to give a mild acid taste (0.2 ppt) | X: number of panels, acid taste reduced but piercing odor characteristic to aldehydes unpleasant (0.2 ppt) | A: number of panels, acid taste/acid smell extreme and cause irritation (0.5 ppt) | X: number of panels, acid taste reduced but piercing odor characteristic to aldehydes unpleasant (0.5 ppt) | A: number of panels, acid taste/acid smell extreme and cause irritation (1 ppb) | B: number of panels, acid taste/acid smell slightly strong and slightly cause irritation (1 ppb) | Flavor judgment: number of panels who judged acid taste/acid smell quality the highest (1 ppb) | A: number of panels, acid taste/acid smell extreme and cause irritation (1 ppt) | X: number of panels, acid taste reduced but piercing odor characteristic to aldehydes unpleasant (1 ppt) | A: number of panels, acid taste/acid smell extreme and cause irritation (5 ppt) | X: number of panels, acid taste reduced but piercing odor characteristic to aldehydes unpleasant (5 ppt) | A: number of panels, acid taste/acid smell extreme and cause irritation (10 ppb) | B: number of panels, acid taste/acid smell slightly strong and slightly cause irritation (10 ppb) | Flavor judgment: number of panels who judged acid taste/acid smell quality the highest (10 ppb) | A: number of panels, acid taste/acid smell extreme and cause irritation (20 ppt) | B: number of panels, acid taste/acid smell slightly strong and slightly cause irritation (20 ppt) | X: number of panels, acid taste reduced but piercing odor characteristic to aldehydes unpleasant (20 ppt) | A: number of panels, acid taste/acid smell extreme and cause irritation (50 ppb) | B: number of panels, acid taste/acid smell slightly strong and slightly cause irritation (50 ppb) | Flavor judgment: number of panels who judged acid taste/acid smell quality the highest (50 ppb) | A: number of panels, acid taste/acid smell extreme and cause irritation (100 ppt) | B: number of panels, acid taste/acid smell slightly strong and slightly cause irritation (100 ppt) | Flavor judgment: number of panels who judged acid taste/acid smell quality the highest (100 ppt) | A: number of panels, acid taste/acid smell extreme and cause irritation (500 ppt) | B: number of panels, acid taste/acid smell slightly strong and slightly cause irritation (500 ppt) | Flavor judgment: number of panels who judged acid taste/acid smell quality the highest (500 ppt)
10: A: number of panels, acid taste/acid smell extreme and cause irritation (0.005 ppt)
9: A: number of panels, acid taste/acid smell extreme and cause irritation (0.02 ppt)
2: B: number of panels, acid taste/acid smell slightly strong and slightly cause irritation (0.2 ppt) | C: number of panels, acid taste/acid smell slightly unpleasant (0.2 ppt) | B: number of panels, acid taste/acid smell slightly strong and slightly cause irritation (0.5 ppt) | C: number of panels, acid taste/acid smell slightly unpleasant (0.5 ppt) | C: number of panels, acid taste/acid smell slightly unpleasant (1 ppb) | B: number of panels, acid taste/acid smell slightly strong and slightly cause irritation (1 ppt) | C: number of panels, acid taste/acid smell slightly unpleasant (1 ppt) | C: number of panels, acid taste/acid smell slightly unpleasant (5 ppt) | N: number of panels, irritation of acid reduced to give a mild acid taste (50 ppb) | X: number of panels, acid taste reduced but piercing odor characteristic to aldehydes unpleasant (100 ppt)
7: N: number of panels, irritation of acid reduced to give a mild acid taste (5 ppt) | N: number of panels, irritation of acid reduced to give a mild acid taste (20 ppt) | X: number of panels, acid taste reduced but piercing odor characteristic to aldehydes unpleasant (50 ppb)
6: A: number of panels, acid taste/acid smell extreme and cause irritation (0.2 ppt) | N: number of panels, irritation of acid reduced to give a mild acid taste (0.5 ppt) | N: number of panels, irritation of acid reduced to give a mild acid taste (1 ppt) | X: number of panels, acid taste reduced but piercing odor characteristic to aldehydes unpleasant (10 ppb)
4: N: number of panels, irritation of acid reduced to give a mild acid taste (1 ppb) | X: number of panels, acid taste reduced but piercing odor characteristic to aldehydes unpleasant (1 ppb) | Flavor judgment: number of panels who judged acid taste/acid smell quality the highest (5 ppt) | Flavor judgment: number of panels who judged acid taste/acid smell quality the highest (20 ppt) | C: number of panels, acid taste/acid smell slightly unpleasant (100 ppt) | N: number of panels, irritation of acid reduced to give a mild acid taste (100 ppt) | N: number of panels, irritation of acid reduced to give a mild acid taste (500 ppt)
